{"source": "patent US20240299595A1", "about": "“CANCER THERANOSTIC COMPOSITIONS COMPRISING BIGUANIDE COMPLEXES OF GROUP 7 TRANSITION METALS AND USES THEREOF” (BOARD OF REGENTS, THE UNIVERSITY OF TEXAS SYSTEM, priority 2021, published 2024)", "key": {"Kras*": {"system": "Kras*", "assay": "MTT cytotoxicity, pancreatic cancer cell line Kras*", "assay_type": "cell-based, murine", "conditions": "72 h", "experimental": "(§1) To determine cytotoxicity of Re-Phen and Phenformin, different cell lines were exposed to different concentrations of the compounds and their viabilities were followed over time. Pancreatic cells were seeded in 96-well plates (5000 cells/well) overnight, and treated with Re-Phen (FIG. 13A) or phenformin (FIG. 13B) in concentrations ranging from 4.57×10−4 mM to 1.0 mM at 37° C. for 72 h. Cell viability was measured using the MTT assay. The absorption at 590 nm was measured with a microplate reader (SpectraMax, Molecular Device, San Diego, CA) to quantify cell numbers. The proportion of cells was normalized to that of untreated cells and expressed as mean±standard error of the mean (SEM) (n=6). The half-maximal inhibitory concentration (IC50) values were calculated by a sigmoidal dose-response (variable slope) curve-fitting using GraphPad Prism software."}, "IRGOV-1": {"system": "IRGOV-1", "assay": "MTT cytotoxicity, ovarian cancer cell line IRGOV-1", "assay_type": "cell-based", "conditions": "72 hours", "experimental": "(§2) Finally, a comparison study of the cytotoxicity of Re-Phen and phenformin in a panel of ovarian cancer cell lines by MTT assay after a 72 hour incubation period was conducted. Ovarian cells were seeded at 5000 cells/well in 96-well plates overnight, and treated with Re-Phen or phenformin in different concentrations (from 4.57×10^−4 mM to 1.0 mM in 3-fold increase) at 37° C. for 72 hours. Cell viability was measured using the MTT assay. The absorption at 590 nm was measured at microplate reader (SpectraMax, Molecular Device, San Diego, CA) to quantify cell numbers. The proportion of cells was normalized to that of untreated cells and expressed as mean±standard error of the mean (SEM) (n=5-6). The resulting reduced viability with half-maximal inhibitory concentration (IC50) values of mM were calculated by a sigmoidal dose-response (variable slope) curve-fitting using GraphPad Prism software. The data are shown in FIG. 19A (Re-Phen) and FIG. 19B (phenformin). […] In fact, Re-Phen is shown to display >2,000-fold and >5,000-fold higher cytotoxicity against OVACAR-8 and SKOV3 (Table 2) human ovarian cancer cell lines, respectively."}, "[1]": {"system": "orthotopic Kras* murine PDAC tumor", "assay": "Antitumor efficacy, syngeneic Kras* orthotopic PDAC model", "assay_type": "in vivo, C57BL/6 mice", "conditions": "10 daily intraperitoneal injections, 50 mg/kg/injection", "experimental": "FIG. 6A outlines an in vivo experiment assessing antitumor activity of Re-Phen against orthotopic Kras* murine PDAC tumor. Male C57BL/6 mice were inoculated in the pancreas with iKrasG12D murine tumor cells. Treatments were initiated on day 7 after tumor cells inoculation. Each mouse received 10 daily intraperitoneal injections of phenformin or Re-Phen at a dose of 50 mg/kg/injection (100 μL/mouse). Control mice received 50/50 (v/v) Cremorphor EL/absolute ethanol, further diluted at 1:4 (v/v) ratio with saline (100 μL/mouse) before injection.\nFor antitumor efficacy study, the syngeneic Kras* orthotopic PDAC model was used. Kras* PDAC cells established from transgenic mouse model of PDAC with inducible KrasG12D mutation were inoculated into the pancreas of 6-week-old female C57BL/6 mice (Taconic Biosciences, Rensselaer, NY). Treatments were initiated on day 7 after tumor cells inoculation when tumors were ˜5 mm in diameter. Each mouse received 10 daily intraperitoneal injections of phenformin or Re-Phen at a dose of 50 mg/kg/injection (100 μL/mouse) (FIG. 6A). Each drug was formulated in 50/50 (v/v) Cremorphor EL/absolute ethanol, which that was further diluted at 1:4 (v/v) ratio with saline before injection. Animals were weighted daily to record possible adverse effects. Animals were euthanized on day 16 after the last injection. Tumors were harvested and weighted, fixed in formalin, embedded in paraffin, and cut into 4-μm sections. Slides were immunohistochemically stained with the proliferation marker Ki67, counterstained with hematoxylin and visualized under a brightfield microscope at 100× or 200× magnification."}, "HeyA8": {"system": "HeyA8", "assay": "MTT cytotoxicity, ovarian cancer cell line HeyA8", "assay_type": "cell-based", "experimental": "as §2"}, "MiaPaca-2 PDAC cells": {"system": "MiaPaca-2 PDAC cells", "assay": "MTT cytotoxicity, pancreatic cancer cell line MiaPaca-2", "assay_type": "cell-based", "conditions": "for IC50: MTT, 72 h", "experimental": "as §1, with “Pancreatic cells were seeded in 96-well plates (5000 cells/well) overnight, and treated with Re-Phen (FIG. 13A) or phenformin (FIG. 13B) in concentrations ranging from 4.57×10−4 mM to 1.0 mM at 37° C. for 72 h.” left out"}, "PDAC cells": {"system": "PDAC cells", "assay": "Glycolytic ratio, YSI metabolic analyzer", "assay_type": "cell-based", "conditions": "30 μM, 24 hours", "experimental": "The glycolytic ratio was obtained using a YSI metabolic analyzer after treatments with phenformin (30 μM) or Re-Phen (30 μM) for 24 hours. Wells with culture media but without cells were used for baseline reading. Data are presented as mean±SD (n=3). *p<0.05; **p<0.01.\nBoth Re-Phen and phenformin altered the mitochondrial functions and metabolic state of PDAC cells. The fluorescent intensities for both monomeric forms (Ex/Em=490/525 nm) and J-aggregates (Ex/Em=540/590 nm) of JC-10 change upon mitochondrial membrane polarization. Thus, an increase in the ratio of fluorescence intensities measured at 525 nm (monomeric form) over 590 nm (aggregates) represents a decrease in mitochondrial membrane potential."}, "[2]": {"system": "normal cells (RAW264.7, NIH3T3, hTERT-HPNE)", "assay": "MTT cytotoxicity against normal cells", "assay_type": "cell-based", "conditions": "72 hours", "experimental": "Next, RAW264.7 (FIG. 14A), NIH3T3 (FIG. 14B), or hTERT-HPNE (FIG. 14C) cells were seeded in 96-well plates (5000 cells/well) overnight, and treated with Re-Phen or phenformin in concentrations ranging from 4.57×10−4 mM to 1.0 mM at 37° C. for 72 hours. Cell viability was measured using the MTT assay. The proportion of cells was normalized to that of untreated cells and expressed as mean±standard error of the mean (SEM) (n=5). The half-maximal inhibitory concentration (IC50) values were calculated by a sigmoidal dose-response (variable slope) curve-fitting using GraphPad Prism software."}, "[3]": {"system": "PDAC cells (Kras*, MiaPaca-2)", "assay": "Annexin V/PI flow cytometry cell death", "assay_type": "cell-based", "conditions": "250 μM, 24 hours, Kras* and MiaPaca-2 cell lines", "from_the_text": "Vehicle (DMSO) treated cells were used as a control.\nAMPK is a key enzyme that becomes activated under nutrient stress. Annexin V/PI double staining kit was used to detected cell death in flow cytofluorimetric analyses. […] In Kras* cell line, cells died largely of necrosis; in MiaPaca-2 cell line, cells died mostly of apoptosis."}, "OVCAR8": {"system": "OVCAR8", "assay": "MTT cytotoxicity, ovarian cancer cell line OVCAR8", "assay_type": "cell-based, human", "experimental": "as §2"}}}
{"smiles": "[H]/N=C(/N)N/C(=N/[H])NCCc1ccccc1", "note": "[Phenformin, N-phenylethyl biguanide, reference compound]", "values": [{"measurement": "IC50", "setting": "Kras*; Mus musculus, Pancreatic cancer cell", "result": 750, "unit": "µM"}, {"measurement": "IC50", "setting": "IRGOV-1", "result": 380, "unit": "µM"}, {"measurement": "Ki67+ proliferating cells in tumors (IHC) compared to vehicle", "setting": "[1]", "result": "markedly reduced Ki67+ proliferating cells"}, {"measurement": "change in body weight", "setting": "[1]", "result": "No significant change in body weight"}, {"measurement": "IC50", "setting": "HeyA8; HEY A8, 72 hours", "result": 22, "unit": "µM"}, {"measurement": "IC50", "setting": "MiaPaca-2 PDAC cells; Homo sapiens, MIA PaCa-2", "result": 13600, "unit": "µM"}, {"measurement": "compensatory glycolysis (glycolytic ratio, lactate produced to glucose consumed)", "setting": "PDAC cells", "result": "increased compensatory glycolysis"}]}
{"smiles": "N=C(N)NC(=N)NCCc1ccccc1.[C-]#[O+].[C-]#[O+].[C-]#[O+].[Re+]", "note": "[Re-Phen]", "values": [{"measurement": "IC50", "setting": "Kras*", "result": 230, "unit": "µM"}, {"measurement": "cytotoxicity against normal cells", "setting": "[2]", "result": "generally less cytotoxic than phenformin"}, {"measurement": "IC50", "setting": "IRGOV-1", "result": 420, "unit": "µM"}, {"measurement": "Ki67+ proliferating cells in tumors (IHC) compared to vehicle", "setting": "[1]", "result": "markedly reduced Ki67+ proliferating cells"}, {"measurement": "change in body weight", "setting": "[1]", "result": "No significant change in body weight"}, {"measurement": "tumor size compared to vehicle control", "setting": "[1]", "result": "significantly reduced tumor size"}, {"measurement": "IC50", "setting": "HeyA8; 72 hours", "result": 82, "unit": "µM"}, {"measurement": "IC50", "setting": "MiaPaca-2 PDAC cells", "result": 39, "unit": "µM"}, {"measurement": "fold higher cytotoxicity against MiaPaca-2 PDAC cells", "setting": "MiaPaca-2 PDAC cells; Re-Phen versus phenformin, Table 1", "result": "about 35 fold"}, {"measurement": "induction of cell death", "setting": "[3]", "result": "more potent than phenformin"}, {"measurement": "compensatory glycolysis (glycolytic ratio, lactate produced to glucose consumed)", "setting": "PDAC cells", "result": "increased compensatory glycolysis"}, {"measurement": "IC50", "setting": "OVCAR8; MTT, 72 hours", "result": 110, "unit": "µM"}, {"measurement": "fold higher cytotoxicity against OVACAR-8", "setting": "OVCAR8; Re-Phen versus phenformin, Table 2", "result": "> 2,000 fold"}]}
